Test results: PMC7848973, “In Vivo Efficacy and Metabolism of the Antimalarial Cycleanine and Improved In Vitro Antiplasmodial Activity of Semisynthetic Analogues” (Antimicrobial Agents and Chemotherapy, 2021)
Read-outs that look alike come from different tables or passages of the source. Marks after values point to notes of the source that are not given here.

How the values were obtained:
[1] = system: chloroquine-resistant P. falciparum strain W2; details: cited from earlier work
[2] = system: P. falciparum Dd2 chloroquine-resistant strain; assay: In vitro antiplasmodial activity, SYBR green I fluorescence assay; format: cell-based, Plasmodium falciparum
Procedure: Normalized fluorescence signals were measured against controls with 1% DMSO (100% growth) and after exposure to a supralethal concentration (10 μM) of chloroquine (0% growth). Determination of the 50% inhibitory concentration (IC50) was performed from a log concentration versus the mean normalized fluorescence signal curve using GraphPad Prism software (v5.0). Each biological replicate consisted of three technical repeats, with three independent biological replicates performed.

[3] = system: human oral epidermoid carcinoma (KB) cells; parameters: method as in PMID 9917283; details: cited from earlier work
[4] = system: human ovarian epithelial (HOE) cells; details: cited from earlier work
[5] = system: P. falciparum chloroquine-sensitive strain D6; details: read-out: IC50 against P. falciparum strain D6; cited from earlier work
[6] = system: Plasmodium berghei; assay: Curative activity during established P. berghei infection of mice; format: in vivo; details: curative model, n = 6; for MST: over 30 days
Procedure: (§1) (i) Malaria parasite. Chloroquine-sensitive strains of P. berghei were sourced from the National Institute of Medical Research (NIMER), Yaba Lagos, Nigeria, and maintained by subpassage in mice.
(§2) (ii) Parasite inoculation. Each mouse was inoculated intraperitoneally with about 1 × 10^7 P. berghei parasitized erythrocytes in 0.2 ml of infected blood (5 × 10^7 P. berghei erythrocytes/ml) according to published procedure ([39]).
(§3) (iii) Experimental animals. Female and male Swiss albino mice (18 to 25 g) were obtained from the University of Uyo’s animal house. Before use, mice were kept in cages and acclimatized for 10 days. All mice were kept in cross-ventilated rooms at room temperature. The care and use of mice were performed in accordance with the National Institutes of Health Guide for the Care and Use of Laboratory Animals (1996). This investigation was approved by the University of Uyo’s Animal Ethics Committee.
(§4) (v) Drug administration. Cycleanine, chloroquine, and pyrimethamine were prepared in water and administered orally with the aid of a stainless metallic feeding cannula.
(viii) Curative activity of cycleanine. The curative activity of cycleanine was assessed according to a method described previously ([42], [44]). P. berghei was injected intraperitoneally into another 24 mice on the first day. Three days later, the mice were also separated into four groups of six mice per group. Groups 1 and 2 were administered different doses of cycleanine, 25 and 50 mg/kg, respectively, group 3 was given 5 mg/kg chloroquine (positive control), and group 4 was given 10 ml/kg distilled water (negative control). Cycleanine and chloroquine were given once a day for 5 days. Mouse tail blood samples were collected on each day, and Giemsa-stained thin smears were prepared to determine the parasitemia level. The MST of the mice in each group was determined over a period of 30 days.

[7] = system: Plasmodium berghei; assay: Suppressive activity during early P. berghei infection of mice; format: in vivo; details: suppressive model; for Parasitemia after infection for 96 h / MST: mean ± SEM, n = 6; for MST: over 30 days
Procedure: as §1, §2, §3, §4
(vi) Suppressive activity of cycleanine. The schizontocidal activity of cycleanine and chloroquine against early P. berghei infection in mice was measured according to an established protocol ([25], [41], [42]). On the first day, 20 to 24 mice were infected with the parasite and randomly separated into four groups. The mice in groups 1 and 2 were given 25 and 50 mg/kg of cycleanine, respectively, those in group 3 were given 5 mg/kg of chloroquine (positive control), and those in group 4 were given distilled water (10 ml/kg, negative control) for four consecutive days. Thin films were made from the tail blood on the fifth day. Parasitized erythrocytes were counted in stained films (Giemsa stain) under a microscope. The average suppression of parasitemia (%) was calculated as follows: average % parasitemia positive control−average % parasitemia negative control/average % parasitemia negative control×100
The MST (in days) of the mice in each group was determined over a period of 30 days.

[8] = system: HCT-116 human colon carcinoma cells; details: cited from earlier work
[9] = system: Plasmodium berghei; assay: Prophylactic activity in P. berghei infection of mice; format: in vivo; details: prophylactic model; for Parasitemia level after infection for 72 h / MST: mean ± SEM, n = 6; for MST: over 30 days
Procedure: as §1, §2, §3, §4
(vii) Prophylactic activity of cycleanine. The prophylactic activity of cycleanine was evaluated using a previously described method ([42], [43]). The mice were randomly divided into four groups of six mice per group. Groups 1 and 2 were given 25 and 50 mg/kg of cycleanine, respectively, group 3 was given 1.2 mg/kg of pyrimethamine (positive control), and group 4 was given 10 ml/kg of distilled water (negative control). Administration of cycleanine or the drug continued for three consecutive days. On the fourth day, the mice were inoculated with P. berghei. The parasitemia level was evaluated by blood smears after 3 days. The survival times (days) of the mice were recorded over a period of 30 days, and MST were calculated.

[10] = system: P. falciparum chloroquine-sensitive clone 3D7; parameters: method as in PMID 26594753; details: read-out: IC50 against P. falciparum chloroquine-sensitive clone 3D7; cited from earlier work
[11] = parameters: method as in earlier work; details: mice; cited from earlier work
[12] = Acute median lethal dose (LD50) of cycleanine in mice; format: in vivo; details: 24 h, intraperitoneal
Procedure: as §3
(iv) Determination of median lethal dose (LD50) of cycleanine. The median lethal dose (LD50) of cycleanine was determined using albino mice by the intraperitoneal (i.p.) route ([40]). Different doses of cycleanine (10 to 5,000 mg/kg) were intraperitoneally administered to groups of three mice each. The mice were monitored for manifestation of physical signs of toxicity, including decrease of motor activity, writhing, decrease of body/limb tone, weakness, and death. The number of deaths in each group within 24 h was recorded. The LD50 value was calculated as the geometrical means of the minimum dose producing 100% mortality and the maximum dose producing 0%.

[13] = Plasmodium falciparum, DD2, chloroquine-resistant strain, mean ± SD, n = 3 independent biological repeats, read-out: IC50 against P. falciparum strain Dd2
[14] = read-out: CC50 against HOE, human ovarian epithelial (HOE) cells
[15] = chloroquine-resistant strain, ref 16, read-out: IC50 against P. falciparum strain W2
[16] = Plasmodium falciparum, DD2, read-out: IC50 against P. falciparum strain Dd2
[17] = chloroquine-resistant strain, ref 18, read-out: IC50 against P. falciparum strain W2
[18] = 25 mg/kg oral, mean ± SEM, 25 mg/kg
[19] = 50 mg/kg oral, mean ± SEM, 50 mg/kg

For COc1cc2c3c4c1Oc1cc5c(cc1O4)C(Cc1ccc(O)c(c1)Oc1ccc(cc1)CC3NCC2)N(C)CC5 (centres unmarked) [2′-Norcocsuline (3), 2′-norcocsuline], the IC50 ([1]; read-out: IC50 against chloroquine-resistant clone W2) is listed as 0.248 µM, the IC50 [2, 13] is listed as 7 ± 1.6 µM and the “CC50 against cancer cell line KB” value [3] is listed as 3.8^b μM. For the same molecule, the CC50 [4, 14] was 8 ± 0.2 µM and the IC50 [5] was 0.048 µM.
For COc1cc2c3c(c1OC)Oc1ccc(cc1)C[C@H]1c4c(c(CN(C)C)c(OC)c(OC)c4Oc4ccc(cc4)C[C@@H]3N(C)CC2)CCN1C [5-[(Dimethylamino)methyl]cycleanine (4), 5-[(Dimethylamino)methyl]cycleanine], the IC50 [2, 13] is given as 0.7 ± 0.1 µM and the CC50 [4, 14] is given as 10 ± 0.2 µM.
For C#CCNCc1c2c3c(c(OC)c1OC)Oc1ccc(cc1)C[C@H]1c4c(cc(OC)c(OC)c4Oc4ccc(cc4)C[C@@H]3N(C)CC2)CCN1C [5-[(Propargylamino)methyl]cycleanine (5), 5-[(Propargylamino)methyl]cycleanine], the IC50 [2, 13] is given as 1.8 ± 0.2 µM and the CC50 [4, 14] is given as 32 ± 1.6 µM.
In the case of CCN(CC)CCCC(C)Nc1ccnc2cc(Cl)ccc12 (centres unmarked) [Chloroquine, reference compound], the IC50 [1, 15] is given as 0.135 µM, the “Parasitaemia Day 3” value ([6]; 5 mg/kg oral, mean ± SEM) is given as 12.4 ± 0.5% and the “Parasitaemia Day 4” value ([6]; 5 mg/kg oral, mean ± SEM) is given as 2.1 ± 0.2%. The “Parasitaemia Day 6” value ([6]; 5 mg/kg oral) was 0.0%, the “Parasitaemia Day 7” value ([6]; 5 mg/kg oral) was 0.0% and the “Parasitaemia Day 5” value ([6]; 5 mg/kg oral, 5 mg/kg) was 0%. For the same molecule, the MST ([6]; 5 mg/kg oral, mean ± SEM, 5 mg/kg) was 30 days, the IC50 [2, 16] was 0.18 ± 0.03 µM and the “CC50 against cancer cell line KB” value [3] was 33.7^b μM. The “Suppression of parasitemia at 96 h” value ([7]; 5 mg/kg per day oral) was 94.0%, the “Parasitemia after infection for 96 h” value ([7]; 5 mg/kg per day oral) was 2.0 ± 0.8^b % and the MST ([7]; 5 mg/kg per day oral) was 30.0 ± 0.0^b days. The IC50 [5] was 0.006 µM.
For COc1cc2c3c(c1O)Oc1ccc(cc1)C[C@@H]1c4c(cc(OC)c(O)c4Oc4ccc(cc4)C[C@H]3N(C)CC2)CCN1C [Isochondodendrine (2), isochondodendrine], the IC50 [1, 17] is given as 0.2 µM, the IC50 [2, 16] is given as 6.1 ± 1.3 µM and the CC50 [8] is given as 29 µM. The CC50 [4] was 10.5 ± 1.2 µM.
For CCc1nc(N)nc(N)c1-c1ccc(Cl)cc1 [Pyrimethamine, reference compound], the “Suppression of parasitemia level after infection for 72 h” value (“Suppression of parasitemia level” for short) ([9]; 1.2 mg/kg per day oral) was 76.2%, the “Parasitemia level after infection for 72 h” value ([9]; 1.2 mg/kg per day oral) was 4.8 ± 1.1^b % and the MST ([9]; 1.2 mg/kg per day oral) was 29.8 ± 0.2^b days.
In the case of cycleanine, the “Suppression of parasitemia level” value ([9]; 25 mg/kg per day oral) is reported as 43.4%, the “Parasitemia level after infection for 72 h” value ([9]; 25 mg/kg per day oral) is reported as 11.5 ± 0.9^b % and the MST ([9]; 25 mg/kg per day oral) is reported as 23.0 ± 0.6^b days. For the same molecule, the “Suppression of parasitemia level” value ([9]; 50 mg/kg per day oral) was 59.0%, the “Parasitemia level after infection for 72 h” value ([9]; 50 mg/kg per day oral) was 8.3 ± 1.0^b % and the MST ([9]; 50 mg/kg per day oral) was 24.5 ± 0.6^b days. The IC50 [10] was 0.08 µM, the IC50 [1, 15] was 0.25 µM and the IC50 [1, 17] was 4.5 µM. For the same molecule, the LD50 [11] was 1100 mg/kg, the “Parasitaemia Day 3” value ([6]; 25 mg/kg oral, mean ± SEM) was 12.7 ± 1.7% and the “Parasitaemia Day 5” value [6, 18] was 13.3%. For the same molecule, the MST [6, 18] was 21 days, the “Parasitaemia Day 3” value ([6]; 50 mg/kg oral, mean ± SEM) was 15.5 ± 0.9% and the “Parasitaemia Day 6” value ([6]; 50 mg/kg oral, mean ± SEM) was 6.0 ± 1.0%. For the same molecule, the “Parasitaemia Day 7” value ([6]; 50 mg/kg oral, mean ± SEM) was 3.7 ± 1.1%, the “Parasitaemia Day 5” value [6, 19] was 10.5% and the MST [6, 19] was 25 days. For the same molecule, the IC50 ([2]; chloroquine-resistant strain, mean ± SD, n = 3 independent biological repeats, read-out: IC50 against P. falciparum strain Dd2) was 17.7 ± 2 µM, the “CC50 against cancer cell line KB” value [3] was over 33.7 µM and the “Acute median lethal dose (LD50)” value [12] was 4500 mg/kg. For the same molecule, the CC50 ([8]; read-out: CC50 against cancer cell line HCT, HCT-116 human colon carcinoma cells) was 531 µM, the “Suppression of parasitemia at 96 h” value ([7]; 25 mg/kg per day oral) was 44.7% and the “Parasitemia after infection for 96 h” value ([7]; 25 mg/kg per day oral) was 15.7 ± 1.8^b %. The MST ([7]; 25 mg/kg per day oral) was 24.7 ± 1.1^b days, the “Suppression of parasitemia at 96 h” value ([7]; 50 mg/kg per day oral) was 86.5% and the “Parasitemia after infection for 96 h” value ([7]; 50 mg/kg per day oral) was 3.8 ± 0.7^b %. The MST ([7]; 50 mg/kg per day oral) was 28.2 ± 0.9^b days, the CC50 [4, 14] was 35 ± 0.1 µM and the IC50 [5] was 0.07 µM.
